Drawing on patent US20250215030A1, “STAT MODULATORS AND USES THEREOF” (Recludix Pharma, Inc., priority 2022, published 2025), this text covers IC50 for seven compounds.

A value given as a limit tells only on which side of the number the result lay.

The IC50 is the point on the concentration scale where inhibition reaches its midpoint.

Experiment [1] deals with T1, Recombinant STAT3 protein (STAT3(G127-I722)) (Homo sapiens, UniProt P40763).
T1 construct: STAT3(G127-I722)
Nature of the experiment: STAT3 Fluorescence Polarization (FP) Assay. Particulars: STAT3(G127-I722) 25 nM, probe 5-FAM-GpYLPQTV-NH2 2 nM, 45-minute incubation. The class given is binding. In short, it runs like this: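 Serially diluted compounds (1% DMSO) were mixed with 2 nM fluorescent phosphotyrosine peptide and 25 nM STAT3 construct G127-I722, pH 7.4, incubated 45 min at room temperature. IC50 values from fitted polarization curves are reported as categories A (≤100 nM), B, C, D (>10 μM).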
(In general: In fluorescence polarisation assays a small probe gives low polarisation when free and higher when bound to something large.)

Experiment [2] deals with T2, Recombinant STAT6 protein (STAT6(W123-T658)) (Homo sapiens, UniProt P42226).
T2 construct: STAT6(W123-T658)
T2 sequence (P42226 123-658): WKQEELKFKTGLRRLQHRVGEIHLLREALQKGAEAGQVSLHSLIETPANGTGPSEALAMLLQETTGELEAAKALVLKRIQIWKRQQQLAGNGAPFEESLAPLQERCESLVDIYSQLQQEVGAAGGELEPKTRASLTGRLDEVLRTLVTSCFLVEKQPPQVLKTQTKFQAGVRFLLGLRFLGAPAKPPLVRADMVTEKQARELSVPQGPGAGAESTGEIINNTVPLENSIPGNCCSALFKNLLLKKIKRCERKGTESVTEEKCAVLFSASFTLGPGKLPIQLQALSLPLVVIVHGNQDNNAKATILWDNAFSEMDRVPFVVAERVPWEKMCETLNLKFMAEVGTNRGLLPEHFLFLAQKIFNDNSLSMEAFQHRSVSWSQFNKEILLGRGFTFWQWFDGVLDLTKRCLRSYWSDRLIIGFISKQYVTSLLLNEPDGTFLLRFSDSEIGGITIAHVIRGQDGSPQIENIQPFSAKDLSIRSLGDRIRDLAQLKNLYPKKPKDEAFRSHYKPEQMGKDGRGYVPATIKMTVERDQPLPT
Nature of the experiment: STAT6 Fluorescence Polarization (FP) Assay. The class given is binding. Particulars: STAT6(W123-T658) 250 nM, probe 5-FAM-ApYKPFQDLI-NH2 2 nM, 45-minute incubation. In a few lines: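 Competitive displacement of a fluorescent phosphotyrosine peptide (2 nM) from recombinant STAT6 W123-T658 (250 nM), 45 min at room temperature in 10 mM HEPES pH 7.4, 50 mM NaCl, 2 mM DTT. mP fitted against log compound for IC50, grouped A (≤300 nM) to D (>30 μM).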

T1 sequence (P40763 127-722, species assumed): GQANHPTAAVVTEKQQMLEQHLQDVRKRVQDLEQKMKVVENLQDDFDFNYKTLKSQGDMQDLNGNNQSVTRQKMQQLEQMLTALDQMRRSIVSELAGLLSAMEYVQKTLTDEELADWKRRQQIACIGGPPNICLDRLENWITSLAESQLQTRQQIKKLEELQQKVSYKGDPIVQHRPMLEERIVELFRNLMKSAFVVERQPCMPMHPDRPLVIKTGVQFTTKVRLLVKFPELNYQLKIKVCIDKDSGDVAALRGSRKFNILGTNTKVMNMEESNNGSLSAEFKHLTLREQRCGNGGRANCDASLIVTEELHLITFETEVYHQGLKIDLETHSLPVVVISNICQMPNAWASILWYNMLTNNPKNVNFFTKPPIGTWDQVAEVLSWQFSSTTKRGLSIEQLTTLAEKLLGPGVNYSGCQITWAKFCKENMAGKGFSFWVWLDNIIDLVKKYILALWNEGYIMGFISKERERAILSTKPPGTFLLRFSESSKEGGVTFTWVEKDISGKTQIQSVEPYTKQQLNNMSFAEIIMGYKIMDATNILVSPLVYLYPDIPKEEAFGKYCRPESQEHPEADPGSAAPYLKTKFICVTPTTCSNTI

For the compound `O=C(N[C@H]1C[C@@H]2C[C@@H]2C[C@H]2CC[C@@H](C(=O)N3CC(n4ccnc4)C3)N2C1=O)c1ccc2ccc(C(F)(F)P(=O)(O)O)cc2c1` [Compound 46, ((7-(((3S,6S,7aS,8aR,9aR)-3-(3-(1H-imidazol-1-yl)azetidine-1-carbonyl)-5-oxodecahydro-1H-cyclopropa[d]pyrrolo[1,2-a]azocin-6-yl)carbamoyl)naphthalen-2-yl)difluoromethyl)phosphonic acid], the IC50 in experiment [1] is below 100 nM; in experiment [2], 0.3 to 3 µM.
With `O=C(N[C@H]1C[C@@H]2C[C@@H]2C[C@H]2CC[C@@H](C(=O)N3CC(N4CCS(=O)(=O)CC4)C3)N2C1=O)c1cc2cc(C(F)(F)P(=O)(O)O)ccc2s1` [Compound 108, ((2-(((3S,6S,7aS,8aR,9aR)-3-(3-(1,1-dioxidothiomorpholino)azetidine-1-carbonyl)-5-oxodecahydro-1H-cyclopropa[d]pyrrolo[1,2-a]azocin-6-yl)carbamoyl)benzo[b]thiophen-5-yl)difluoromethyl)phosphonic acid], the IC50 in experiment [1] is below 100 nM; in experiment [2], 3 to 30 µM.
Consider `O=C(N[C@H]1C[C@@H]2C[C@@H]2C[C@H]2CC[C@@H](C(=O)N3CC(Cc4ccc(F)cc4F)C3)N2C1=O)c1cc2cc(CP(=O)(O)O)ccc2s1` [Example 377, ((2-(((3S,6S,7aS,8aR,9aR)-3-(3-(2,4-difluorobenzyl)azetidine-1-carbonyl)-5-oxodecahydro-1H-cyclopropa[d]pyrrolo[1,2-a]azocin-6-yl)carbamoyl)benzo[b]thiophen-5-yl)methyl)phosphonic acid], for which the IC50 was 100 to 1000 nM in experiment [1] and 3 to 30 µM in experiment [2].
In the case of `Cn1cnnc1C1CN(C(=O)[C@@H]2CC[C@@H]3C[C@@H]4C[C@@H]4C[C@H](NC(=O)c4cc5cc(C(F)P(=O)(O)O)ccc5s4)C(=O)N32)C1` (stereo partly drawn) [Example 331, (fluoro(2-(((3S,6S,7aR,8aS,9aR)-3-(3-(4-methyl-4H-1,2,4-triazol-3-yl)azetidine-1-carbonyl)-5-oxodecahydro-1H-cyclopropa[d]pyrrolo[1,2-a]azocin-6-yl)carbamoyl)benzo[b]thiophen-5-yl)methyl)phosphonic acid], the IC50 in experiment [1] is below 100 nM; in experiment [2], 3 to 30 µM.
For the compound `O=C(N[C@H]1C[C@@H]2C[C@@H]2C[C@H]2CC[C@@H](C(=O)N[C@H]3CN(c4ncccn4)C[C@@H]3F)N2C1=O)c1cc2cc(CP(=O)(O)O)ccc2s1` [Example 257, ((2-(((3S,6S,7aS,8aR,9aR)-3-(((3S,4S)-4-fluoro-1-(pyrimidin-2-yl)pyrrolidin-3-yl)carbamoyl)-5-oxodecahydro-1H-cyclopropa[d]pyrrolo[1,2-a]azocin-6-yl)carbamoyl)benzo[b]thiophen-5-yl)methyl)phosphonic acid], the IC50 in experiment [1] was above 10000 nM; in experiment [2], 3 to 30 µM.
`COC1(c2nccn2C)CN(C(=O)[C@@H]2CC[C@@H]3C[C@@H]4C[C@@H]4C[C@H](NC(=O)c4cc5cc(C(F)(F)P(=O)(O)O)ccc5s4)C(=O)N32)C1` [Compound 75, (difluoro(2-(((3S,6S,7aR,8aS,9aR)-3-(3-methoxy-3-(1-methyl-1H-imidazol-2-yl)azetidine-1-carbonyl)-5-oxodecahydro-1H-cyclopropa[d]pyrrolo[1,2-a]azocin-6-yl)carbamoyl)benzo[b]thiophen-5-yl)methyl)phosphonic acid]: the values for the IC50 in experiment [1] and in experiment [2] were below 100 nM and 3 to 30 µM, respectively.
For the compound `O=C(N[C@H]1C[C@H]2C[C@H]2C[C@H]2CC[C@@H](C(=O)N[C@@H]3CCN(c4cccnc4)C3)N2C1=O)c1cc2cc(C(F)(F)P(=O)(O)O)ccc2s1` [Compound 47, (difluoro(2-(((3S,6S,7aR,8aS,9aR)-5-oxo-3-(((R)-1-(pyridin-3-yl)pyrrolidin-3-yl)carbamoyl)decahydro-1H-cyclopropa[d]pyrrolo[1,2-a]azocin-6-yl)carbamoyl)benzo[b]thiophen-5-yl)methyl)phosphonic acid], the IC50 is below 100 nM in experiment [1] and 0.3 to 3 µM in experiment [2].
